From ChEMBL document CHEMBL3297697, “Property- and structure-guided discovery of a tetrahydroindazole series of interleukin-2 inducible T-cell kinase inhibitors” (J Med Chem, 2014) come the findings set out here.

In brackets after ≈: the same amount, converted by molar mass.

The target in one data set is T1, Aurora kinase A (Homo sapiens, UniProt O14965).
T1 sequence (O14965 whole entry): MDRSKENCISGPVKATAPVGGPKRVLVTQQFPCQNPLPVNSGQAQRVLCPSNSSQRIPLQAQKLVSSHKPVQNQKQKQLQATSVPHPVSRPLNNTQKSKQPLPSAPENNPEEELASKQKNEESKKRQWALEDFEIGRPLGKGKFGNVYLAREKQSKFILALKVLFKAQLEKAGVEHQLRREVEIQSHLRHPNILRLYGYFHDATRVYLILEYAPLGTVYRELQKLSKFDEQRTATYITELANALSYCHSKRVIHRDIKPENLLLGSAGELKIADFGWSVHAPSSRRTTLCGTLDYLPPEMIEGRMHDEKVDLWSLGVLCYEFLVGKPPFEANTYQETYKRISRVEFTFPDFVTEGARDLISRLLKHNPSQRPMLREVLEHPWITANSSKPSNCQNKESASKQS

Data set [1] is described as follows: physchem. The note with it: PBS buffer, pH 7.4, Kinetic_solubility.
The nature of data set [2]: physchem. Conditions: 1-octanol/phosphate buffer, pH 7.4, logD.
For data set [3] the following is noted: buffer, pH 7.4, 24 h, 10000 µM.
For data set [4] the following is noted: octanol/water, pH 7.4, 20 min, 10000 µM.
For a further data set, the species on record is Homo sapiens. Nature of the data set: Selectivity ratio of Ki for human His-tagged full length AURKAto Ki for GST-tagged full length ITK (unknown origin).
The target of data set [5] is T2, Tyrosine-protein kinase ITK/TSK (Homo sapiens, UniProt Q08881).
T2 sequence (Q08881 whole entry): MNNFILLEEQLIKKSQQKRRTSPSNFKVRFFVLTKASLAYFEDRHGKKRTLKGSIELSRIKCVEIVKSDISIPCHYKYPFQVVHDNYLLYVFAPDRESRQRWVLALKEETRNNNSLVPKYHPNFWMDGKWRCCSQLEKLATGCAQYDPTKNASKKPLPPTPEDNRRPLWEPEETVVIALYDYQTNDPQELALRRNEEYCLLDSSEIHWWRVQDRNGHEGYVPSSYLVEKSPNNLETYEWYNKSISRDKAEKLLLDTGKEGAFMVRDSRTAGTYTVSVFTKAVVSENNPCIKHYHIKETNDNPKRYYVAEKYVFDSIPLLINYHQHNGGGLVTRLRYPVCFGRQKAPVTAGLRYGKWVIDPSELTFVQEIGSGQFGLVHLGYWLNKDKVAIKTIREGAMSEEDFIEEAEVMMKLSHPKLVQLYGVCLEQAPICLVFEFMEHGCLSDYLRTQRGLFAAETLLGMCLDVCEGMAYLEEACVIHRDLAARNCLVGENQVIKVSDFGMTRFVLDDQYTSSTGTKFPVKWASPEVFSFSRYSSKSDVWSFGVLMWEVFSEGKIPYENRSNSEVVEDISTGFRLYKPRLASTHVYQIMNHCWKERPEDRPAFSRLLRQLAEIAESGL

For data set [6], the target named is T2, Tyrosine-protein kinase ITK/TSK. The source holds these as a separate data set.
Data set [7] is described as follows: Apparent permeability across MDCK cells. The note with it: dog. The class given is ADME, cell-based, Canis lupus familiaris.
The nature of data set [8]: Plasma protein binding in human. Format: ADME, cell-free. Conditions: read-out: PPB (converted).

Regarding `CC1(C)CCc2[nH]nc(C(=O)Nc3cnn(Cc4ccccc4)c3)c2C1`, affinity at Aurora kinase A was put at a Ki of 1700 nM. Moreover, the kinetic solubility at 24 h, 10000 µM in “physchem [1]” was less than 1 µM. Moreover, the logD at 20 min, 10000 µM in “physchem [2]” turned out to be 4.3.

`CC12Cc3[nH]nc(C(=O)Nc4cnn(Cc5ccccc5)c4)c3CC1C2` (centres undefined) displayed a Ki at Aurora kinase A of 54 nM. In addition, in data set [3], the Kinetic_solubility is 1.6 µM.

Take `O=C(Nc1cnn(Cc2ccccc2)c1)c1n[nH]c2c1CCC1(CCOC1)C2` (racemic): the Ki at Aurora kinase A was greater than 5700 nM. Also, in data set [3], the Kinetic_solubility was 20 µM. This compound also showed a logD at 20 min, 10000 µM in “physchem [2]” of 2.2.

On Aurora kinase A, `O=C(Nc1cnn(Cc2ccccc2)c1)c1n[nH]c2c1CC1CC1C2` (racemic) returned a Ki of 2000 nM. This compound also registered a logD in [4] of 2.5. This compound returned a kinetic solubility at 24 h, 10000 µM in the data set “physchem [1]” of 13 µM (≈ 4.33 µg/mL).

At Aurora kinase A, `O=C(Nc1cnn(Cc2ccccc2)c1)c1n[nH]c2c1CCC(F)(F)C2` had a Ki of 950 nM. In “physchem [1]”, this compound gave a solubility (kinetic) at 24 h, 10000 µM of less than 1 µM. The compound also showed a logD at 20 min, 10000 µM in “physchem [2]” of 3.8.

For the compound `CC1CCc2c(C(=O)Nc3cnn(Cc4ccccc4)c3)n[nH]c2C1` (centres undefined), the affinity at Aurora kinase A corresponds to a Ki of 520 nM.

Turning to `N#Cc1cccc(Cn2cc(NC(=O)c3n[nH]c4c3CC(c3cn[nH]c3)CC4)cn2)c1` (racemic) [listing 1 of 2 here], the Ratio Ki in the data set listed under Homo sapiens is 25.

`N#Cc1cccc(Cn2cc(NC(=O)c3n[nH]c4c3CCCC4)cn2)c1`: the Ratio Ki in the data set listed under Homo sapiens came to 26. Also, affinity at Aurora kinase A was put at a Ki of 780 nM. This compound gave a kinetic solubility at 24 h, 10000 µM in the data set “physchem [1]” of 14 µM (≈ 4.85 µg/mL). This compound also came in with a logD at 20 min, 10000 µM in the data set “physchem [2]” of 2.6.

Regarding `COC1(C)CCc2c(C(=O)Nc3cnn(Cc4ccccc4)c3)n[nH]c2C1` (racemic), in data set [3], the Kinetic_solubility was determined as 77 µM. This compound showed a logD at 20 min, 10000 µM in “physchem [2]” of 2.2.

Compound `COC1(C)CCc2c(C(=O)Nc3cnn(Cc4ccccc4)c3)n[nH]c2C1` (centres undefined) returned a Kinetic_solubility in [3] of 29 µM.

In the case of `N#Cc1cccc(Cn2cc(NC(=O)c3n[nH]c4c3CC(c3cn[nH]c3)CC4)cn2)c1` (centres undefined) [listing 1 of 2 here], the Ki was 9.4 nM in data set [5] and 220 nM at Aurora kinase A. In addition, the IC50 in data set [6] was determined as 2200 nM. The compound also yielded a logD at 20 min, 10000 µM in the data set “physchem [2]” of 2.4.

As for `N#Cc1cccc(Cn2cc(NC(=O)c3n[nH]c4c3CC(c3cn[nH]c3)CC4)cn2)c1` (centres undefined) [listing 2 of 2 here], the Ratio Ki in the data set listed under Homo sapiens was determined as 23.

For the compound `CC1(CO)CCc2c(C(=O)Nc3cnn(Cc4ccccc4)c3)n[nH]c2C1` (racemic), the Ki on Aurora kinase A is 2300 nM. The kinetic solubility at 24 h, 10000 µM in the data set “physchem [1]” is 77 µM (≈ 28.1 µg/mL). In the data set “physchem [2]”, the logD at 20 min, 10000 µM was determined as 2.6.

For `CC1(C)CCc2c(C(=O)Nc3cnn(Cc4ccccc4)c3)n[nH]c2C1`, the Papp in [7] came to 7.6 ×10⁻⁶ cm/s. The Ki on Aurora kinase A amounted to 480 nM. For the same compound, the kinetic solubility at 24 h, 10000 µM in the data set “physchem [1]” is less than 1 µM. The compound further showed a logD at 20 min, 10000 µM in “physchem [2]” of 4.3.

`CN(C)CC[C@@H](c1cccc(Cl)c1)n1cc(NC(=O)c2n[nH]c3c2CCC(C)(C)C3)cn1` registered a Ki on Aurora kinase A of 290 nM. Besides, the kinetic solubility at 24 h, 10000 µM in the data set “physchem [1]” amounted to 25 µM (≈ 11.4 µg/mL). Also, in “physchem [2]”, the logD at 20 min, 10000 µM is 2.7.

As to `CC1CCc2c(C(=O)Nc3cnn(Cc4ccccc4)c3)n[nH]c2C1` (racemic), the Ki on Aurora kinase A came to 1100 nM. The solubility (kinetic) at 24 h, 10000 µM in the data set “physchem [1]” is less than 1 µM. This compound also gave a logD at 20 min, 10000 µM in the data set “physchem [2]” of 4.

Take `CC1(C)CCc2c(C(=O)Nc3cnn([C@H](c4ccccc4)C4CCNCC4)c3)n[nH]c2C1`: the Papp in data set [7] is 0.1 ×10⁻⁶ cm/s. At Aurora kinase A, this compound registered a Ki of 19 nM. For the same compound, the kinetic solubility at 24 h, 10000 µM in the data set “physchem [1]” worked out at 102 µM (≈ 44.1 µg/mL). This compound registered a logD at 20 min, 10000 µM in the data set “physchem [2]” of 1.3.

Take `CN(C)C[C@@H](c1ccccc1)n1cc(NC(=O)c2n[nH]c3c2CCC(C)(C)C3)cn1`: in data set [7], the Papp stood at 8.1 ×10⁻⁶ cm/s. Further, affinity on Aurora kinase A was put at a Ki of 210 nM. In addition, in “physchem [1]”, the kinetic solubility at 24 h, 10000 µM came to 42 µM (≈ 17.1 µg/mL). This compound showed a logD at 20 min, 10000 µM in “physchem [2]” of 2.7.

As for `CN(C)CC[C@@H](c1ccccc1)n1cc(NC(=O)c2n[nH]c3cc(-c4cn[nH]c4)ccc23)cn1`, the fraction unbound in data set [8] is 0.03. This compound also came in with a Ki at Aurora kinase A of 15 nM. In the data set “physchem [1]”, the solubility (kinetic) at 24 h, 10000 µM was determined as 94 µM (≈ 42.7 µg/mL).

In turn, `O=C(Nc1cnn(Cc2ccccc2)c1)c1n[nH]c2c1CC1CC1C2` (centres undefined) had a Ki on Aurora kinase A of 870 nM. In data set [3], this compound gave a Kinetic_solubility of 18 µM. Besides, the logD at 20 min, 10000 µM in the data set “physchem [2]” was 2.

For `N#Cc1cccc(Cn2cc(NC(=O)c3n[nH]c4c3CC(c3cn[nH]c3)CC4)cn2)c1` (racemic) [listing 2 of 2 here], the Ki in [5] is 8.3 nM; at Aurora kinase A, 210 nM. In data set [6], the half-inhibitory concentration (IC50) was 1700 nM. The compound also gave a logD in [4] of 2.5. Also, the solubility (kinetic) at 24 h, 10000 µM in “physchem [1]” is less than 1 µM.

As to `N#Cc1cccc(Cn2cc(NC(=O)c3n[nH]c4cc(-c5cn[nH]c5)ccc34)cn2)c1`, the Papp in [7] was 0.1 ×10⁻⁶ cm/s. The same compound showed a kinetic solubility at 24 h, 10000 µM in the data set “physchem [1]” of less than 1 µM. The logD at 20 min, 10000 µM in the data set “physchem [2]” is 3.4.

As for `O=C(Nc1cnn(Cc2ccccc2)c1)c1n[nH]c2c1CCC1(CC1)C2`, the affinity on Aurora kinase A corresponds to a Ki of 180 nM. For the same compound, in the data set “physchem [1]”, the kinetic solubility at 24 h, 10000 µM is less than 1 µM. Moreover, the logD at 20 min, 10000 µM in the data set “physchem [2]” is 3.9.

`Cc1cccc([C@H](CCN(C)C)n2cc(NC(=O)c3n[nH]c4c3CCC(C)(C)C4)cn2)c1`: the Papp in [7] was 4.3 ×10⁻⁶ cm/s. This compound also returned a Ki at Aurora kinase A of 500 nM. Moreover, the solubility (kinetic) at 24 h, 10000 µM in the data set “physchem [1]” is 72 µM (≈ 31.3 µg/mL). The logD at 20 min, 10000 µM in “physchem [2]” amounted to 2.4.

Take `O=C(Nc1cnn(Cc2ccccc2)c1)c1n[nH]c2c1CCC1(COC1)C2`: the Ki at Aurora kinase A was 2900 nM. In the data set “physchem [1]”, this compound returned a kinetic solubility at 24 h, 10000 µM of 78 µM (≈ 28.3 µg/mL). Also, the logD at 20 min, 10000 µM in “physchem [2]” was found to be 2.4.

As to `CC1(CO)CCc2c(C(=O)Nc3cnn(Cc4ccccc4)c3)n[nH]c2C1` (centres undefined), on Aurora kinase A, the Ki was found to be 200 nM. The compound also displayed a Kinetic_solubility in data set [3] of 83 µM. This compound also had a logD in data set [4] of 2.7.

With `CC1(C)CCc2c(C(=O)Nc3cnn([C@@H](CCS(C)(=O)=O)c4ccccc4)c3)n[nH]c2C1`, the Ratio Ki in the data set filed under Homo sapiens was found to be 340. Besides, in data set [7], the Papp was 3.2 ×10⁻⁶ cm/s. Also, the Ki in data set [5] came to 6.2 nM; on Aurora kinase A, 2100 nM. Further, in [6], the midpoint of inhibition, the IC50, lay at 310 nM. For the same compound, the solubility (kinetic) at 24 h, 10000 µM in the data set “physchem [1]” was 14 µM (≈ 6.38 µg/mL). Moreover, the logD at 20 min, 10000 µM in “physchem [2]” was 2.5.

For the compound `N#Cc1cccc(Cn2cc(NC(=O)c3n[nH]c4ccccc34)cn2)c1`, the Ratio Ki in the data set listed under Homo sapiens came out at 20. Further, the Ki is 43 nM in data set [5] and 870 nM at Aurora kinase A. Further, the kinetic solubility at 24 h, 10000 µM in “physchem [1]” turned out to be 5.8 µM (≈ 1.99 µg/mL). This compound showed a logD at 20 min, 10000 µM in “physchem [2]” of 3.

For `CC12Cc3[nH]nc(C(=O)Nc4cnn(Cc5ccccc5)c4)c3CC1C2` (racemic), on Aurora kinase A, the Ki is 440 nM. This compound came in with a kinetic solubility at 24 h, 10000 µM in the data set “physchem [1]” of 1.3 µM (≈ 0.452 µg/mL). This compound showed a logD at 20 min, 10000 µM in “physchem [2]” of 3.8.

With `O=C(Nc1cnn(Cc2ccccc2)c1)c1n[nH]c2c1CCC1(CCOC1)C2` (centres undefined), the Kinetic_solubility in data set [3] is 60 µM.

Take `CN(C)CC[C@H](c1ccccc1)n1cc(NC(=O)c2n[nH]c3c2CCC(C)(C)C3)cn1`: the kinetic solubility at 24 h, 10000 µM in the data set “physchem [1]” came out at 49 µM (≈ 20.6 µg/mL). The compound also yielded a logD at 20 min, 10000 µM in the data set “physchem [2]” of 2.
